In patent US11198680B2 (BioAxone BioSciences, Inc., priority 2016, dated 2021):
pEC50, pIC50: −log10 of the molar value. Like-named read-outs stand apart in the source and are kept apart here.

Legend:
[1] = Brain concentration after IV BA-1049 (R), LC-MS/MS; format: in vivo; conditions: mouse
Experimental: Mice are dosed either by intravenous (IV) administration or oral (PO) administration via oral gavage.
After IV dosing, brains are collected from 4 mice at each time point: 0.083 hr, 0.5 hr, 2 hr, 6 hr, 12 hr, and 24 hr after dose. Each mouse is euthanized by CO2. The entire brains are removed, weighed, rinsed with PBS, placed in tubes, and snap frozen in liquid nitrogen.
Brain tissue was homogenized in 1 mL/g PBS. Brain homogenates are precipitated by pipetting 200 μL of homogenate into a tube using aseptically cut off 1000 μL pipette tips to prevent clogging.

[2] = system: intracellular ROCK activity (ppMLC2 T18/S19) in HUVECs; assay: HUVEC ppMLC2 dose-response; format: cell-based, human; conditions: for pEC50: 1 h exposure, read-out: EC50 for reduction of MLC2 diphosphorylation; for maximum reduction of ppMLC2 levels: highest dose tested 1 mM, 1 h
Experimental: Cells were exposed to each dose for 1 h. All experiments were conducted in triplicate and analyzed by 2 independent assessors blinded to the compound and compound concentration.
Cells were subjected to biochemical protein analysis of di-phosphorylated MLC2 (Threonine 18/Serine 19 phosphorylation sites) using SDS-PAGE and immunoblotting. Cells were plated in a 24-well tissue culture plates, coated with 70 μg/ml rat collagen-1 (Corning) and grown for 2-3 days at 37° C./5% CO2 until confluency. […] Drugs were diluted in Medium 200 (Thermo Fisher Scientific) supplemented with 0.1% human serum albumin (HSA, Sigma-Aldrich). After 1 h, cells were lysed with RIPA buffer (Boston Bioproducts; Ashland, Mass.) supplemented with complete protease/phosphatase inhibitors (HALT, Thermo Fisher Scientific), reduced, and denatured with Laemmli sample buffer (BioRad)/beta-mercaptoethanol. Denatured samples were electrophoresed in reducing 10% Bis-Tris-PA gels (Novex) and then transferred onto 0.25 μm PVDF membranes (EMD Millipore). Membranes were incubated with 4% bovine serum albumin solution to block unspecific antibody binding sites and then immunolabeled for ppMLC2 T18/S19 (1:500, Cell Signaling) and glyceraldehyde 3-phosphate dehydrogenase loading control (GAPDH, 1:10,000; Abcam). Protein levels were detected using a chemiluminescence substrate (Super Signal West, ThermoFisher) and were captured with FluoroChem SP imaging system. Chemiluminescence of ppMLC2 and GAPDH was measured by densitometric analysis. ppMLC2 signal was normalized against GAPDH signal plotted as percentage of no treatment control (0 μM). EC50 values were determined by dose-response analysis using GraphPad software.

[3] = target: ALK (Homo sapiens (Human), UniProt Q9UM73); assay: KINOMEscan kinome screen; conditions: percent of negative control binding
Sequence of ALK (Q9UM73 19-1620): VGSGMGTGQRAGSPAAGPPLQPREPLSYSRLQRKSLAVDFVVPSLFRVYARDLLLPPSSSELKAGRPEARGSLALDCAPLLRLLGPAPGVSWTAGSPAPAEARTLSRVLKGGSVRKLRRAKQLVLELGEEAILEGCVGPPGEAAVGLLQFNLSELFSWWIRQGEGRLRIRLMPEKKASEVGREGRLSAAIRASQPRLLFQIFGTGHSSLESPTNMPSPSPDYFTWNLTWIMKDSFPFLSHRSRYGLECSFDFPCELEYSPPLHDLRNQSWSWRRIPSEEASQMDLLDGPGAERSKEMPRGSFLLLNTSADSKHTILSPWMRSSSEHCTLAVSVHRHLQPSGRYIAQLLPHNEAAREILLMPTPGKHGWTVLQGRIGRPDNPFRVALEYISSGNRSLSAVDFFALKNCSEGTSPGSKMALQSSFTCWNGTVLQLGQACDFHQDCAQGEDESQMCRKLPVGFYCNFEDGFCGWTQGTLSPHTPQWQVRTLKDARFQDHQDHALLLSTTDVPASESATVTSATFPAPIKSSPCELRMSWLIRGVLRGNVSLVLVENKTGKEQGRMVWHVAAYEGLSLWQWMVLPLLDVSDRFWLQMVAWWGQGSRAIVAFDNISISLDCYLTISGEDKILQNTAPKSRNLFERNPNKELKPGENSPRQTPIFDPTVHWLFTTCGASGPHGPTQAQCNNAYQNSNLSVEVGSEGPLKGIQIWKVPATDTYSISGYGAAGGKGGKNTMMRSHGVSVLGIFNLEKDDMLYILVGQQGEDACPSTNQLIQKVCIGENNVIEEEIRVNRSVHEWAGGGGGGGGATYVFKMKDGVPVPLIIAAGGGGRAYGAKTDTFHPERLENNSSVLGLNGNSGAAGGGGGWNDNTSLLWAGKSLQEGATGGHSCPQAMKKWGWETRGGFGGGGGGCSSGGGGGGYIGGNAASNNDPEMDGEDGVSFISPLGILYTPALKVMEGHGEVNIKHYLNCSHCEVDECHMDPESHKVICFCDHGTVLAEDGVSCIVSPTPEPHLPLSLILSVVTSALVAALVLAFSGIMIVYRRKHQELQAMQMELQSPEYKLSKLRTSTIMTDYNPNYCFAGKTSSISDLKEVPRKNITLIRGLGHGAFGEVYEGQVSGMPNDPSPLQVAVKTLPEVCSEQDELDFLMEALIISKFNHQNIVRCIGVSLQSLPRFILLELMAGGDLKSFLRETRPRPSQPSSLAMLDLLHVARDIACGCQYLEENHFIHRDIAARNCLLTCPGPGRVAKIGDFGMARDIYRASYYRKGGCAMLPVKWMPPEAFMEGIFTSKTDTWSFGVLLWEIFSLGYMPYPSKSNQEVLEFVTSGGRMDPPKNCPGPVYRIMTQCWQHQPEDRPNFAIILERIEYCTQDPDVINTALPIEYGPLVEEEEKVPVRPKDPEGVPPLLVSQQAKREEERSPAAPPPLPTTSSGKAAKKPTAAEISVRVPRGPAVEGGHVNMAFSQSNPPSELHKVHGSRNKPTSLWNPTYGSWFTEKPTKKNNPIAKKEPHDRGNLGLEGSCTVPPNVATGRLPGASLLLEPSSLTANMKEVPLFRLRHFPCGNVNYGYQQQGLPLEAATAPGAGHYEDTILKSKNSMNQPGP
Description: (§1) The KINOMEscan™ screening platform (DiscoverX, Fremont, Calif.) employs a novel active site-directed competition binding assay to quantitatively measure interactions between test compounds and more than 450 human kinases and disease relevant mutant variants. […] Compounds that bind the kinase active site and directly (sterically) or indirectly (allosterically) prevent kinase binding to the immobilized ligand, will reduce the amount of kinase captured on the solid support. […] Screening “hits” are identified by measuring the amount of kinase captured in test versus control samples by using a quantitative, precise and ultra-sensitive qPCR method that detects the associated DNA label.
(§2) Kinase-tagged T7 phage strains were grown in parallel in 24-well blocks in an E. coli host derived from the BL21 strain. E. coli were grown to log-phase and infected with T7 phage from a frozen stock (multiplicity of infection=0.4) and incubated with shaking at 32° C. until lysis (90-150 minutes). The lysates were centrifuged (6,000×g) and filtered (0.2 μm) to remove cell debris. The remaining kinases were produced in HEK-293 cells and subsequently tagged with DNA for qPCR detection (Wein, et al. (2016) Nat. Comm. 7). […] Test compounds were prepared as 40× stocks in 100% DMSO and directly diluted into the assay. All reactions were performed in polypropylene 384-well plates in a final volume of 0.02 ml.

[4] = target: FGFR4 (Homo sapiens (Human), UniProt P22455); assay: KINOMEscan kinome screen; conditions: percent of negative control binding
Description: as §1, §2

[5] = target: IRAK3 (Homo sapiens (Human), UniProt Q9Y616); assay: KINOMEscan kinome screen; conditions: percent of negative control binding
Sequence of IRAK3 (Q9Y616 whole entry): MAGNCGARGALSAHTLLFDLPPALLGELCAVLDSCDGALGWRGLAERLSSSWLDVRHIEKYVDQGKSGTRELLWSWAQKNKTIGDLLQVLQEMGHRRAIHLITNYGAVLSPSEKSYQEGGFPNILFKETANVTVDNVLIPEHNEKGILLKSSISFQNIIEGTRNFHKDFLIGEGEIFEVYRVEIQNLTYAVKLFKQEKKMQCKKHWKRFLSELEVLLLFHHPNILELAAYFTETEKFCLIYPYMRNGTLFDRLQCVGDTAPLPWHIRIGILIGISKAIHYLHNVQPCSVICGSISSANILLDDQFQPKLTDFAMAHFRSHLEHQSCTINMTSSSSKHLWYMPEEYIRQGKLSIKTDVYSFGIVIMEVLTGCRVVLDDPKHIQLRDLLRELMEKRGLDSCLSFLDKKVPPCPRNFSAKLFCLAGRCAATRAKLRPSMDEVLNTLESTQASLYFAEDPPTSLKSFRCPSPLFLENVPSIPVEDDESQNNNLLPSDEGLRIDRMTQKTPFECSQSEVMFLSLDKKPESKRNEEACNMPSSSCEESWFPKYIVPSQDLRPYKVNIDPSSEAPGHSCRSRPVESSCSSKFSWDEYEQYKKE
Description: as §1, §2

[6] = target: MARK1 (Homo sapiens (Human), UniProt Q9P0L2); assay: KINOMEscan kinome screen; conditions: percent of negative control binding
Description: as §1, §2

[7] = target: MARK2 (Homo sapiens (Human), UniProt Q7KZI7); assay: KINOMEscan kinome screen; conditions: percent of negative control binding
Description: as §1, §2

[8] = target: MARK3 (Homo sapiens (Human), UniProt P27448); assay: KINOMEscan kinome screen; conditions: percent of negative control binding
Sequence of MARK3 (P27448 whole entry): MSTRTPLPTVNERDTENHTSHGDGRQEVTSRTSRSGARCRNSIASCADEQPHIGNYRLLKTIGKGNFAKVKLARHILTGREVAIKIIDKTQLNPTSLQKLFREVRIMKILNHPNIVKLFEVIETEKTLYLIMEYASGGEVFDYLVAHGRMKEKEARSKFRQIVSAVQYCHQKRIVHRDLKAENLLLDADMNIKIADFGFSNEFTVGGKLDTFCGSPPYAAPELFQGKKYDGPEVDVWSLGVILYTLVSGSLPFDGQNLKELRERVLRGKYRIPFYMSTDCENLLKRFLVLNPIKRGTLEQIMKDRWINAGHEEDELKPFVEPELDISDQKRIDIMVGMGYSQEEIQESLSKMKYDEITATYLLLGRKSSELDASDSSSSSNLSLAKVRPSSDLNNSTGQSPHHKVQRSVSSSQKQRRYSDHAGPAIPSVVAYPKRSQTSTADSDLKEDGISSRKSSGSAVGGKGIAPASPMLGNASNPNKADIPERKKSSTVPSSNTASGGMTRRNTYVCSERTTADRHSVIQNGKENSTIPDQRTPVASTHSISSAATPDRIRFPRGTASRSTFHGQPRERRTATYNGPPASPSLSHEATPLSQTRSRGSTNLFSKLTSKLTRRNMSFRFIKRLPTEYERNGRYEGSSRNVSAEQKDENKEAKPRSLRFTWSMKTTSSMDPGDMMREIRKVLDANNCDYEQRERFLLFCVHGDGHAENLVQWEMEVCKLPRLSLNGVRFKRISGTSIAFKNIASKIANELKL
Description: as §1, §2

[9] = target: MARK4 (Homo sapiens (Human), UniProt Q96L34); assay: KINOMEscan kinome screen; conditions: percent of negative control binding
Description: as §1, §2

[10] = target: MEK1 (Homo sapiens (Human), UniProt Q02750); assay: KINOMEscan kinome screen; conditions: percent of negative control binding
Sequence of MEK1 (Q02750 whole entry): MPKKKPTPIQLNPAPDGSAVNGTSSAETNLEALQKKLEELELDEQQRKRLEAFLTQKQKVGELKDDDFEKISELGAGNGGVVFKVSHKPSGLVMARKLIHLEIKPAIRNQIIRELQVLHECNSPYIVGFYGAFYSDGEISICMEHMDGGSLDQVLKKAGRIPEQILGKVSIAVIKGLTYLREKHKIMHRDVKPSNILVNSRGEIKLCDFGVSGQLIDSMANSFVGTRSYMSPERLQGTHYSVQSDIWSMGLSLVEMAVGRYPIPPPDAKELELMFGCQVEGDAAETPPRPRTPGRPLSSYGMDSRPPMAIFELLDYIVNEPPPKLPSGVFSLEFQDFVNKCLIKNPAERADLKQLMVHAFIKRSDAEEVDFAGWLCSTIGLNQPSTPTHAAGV
Description: as §1, §2

[11] = target: MEK2 (Homo sapiens (Human), UniProt P36507); assay: KINOMEscan kinome screen; conditions: percent of negative control binding
Sequence of MEK2 (P36507 whole entry): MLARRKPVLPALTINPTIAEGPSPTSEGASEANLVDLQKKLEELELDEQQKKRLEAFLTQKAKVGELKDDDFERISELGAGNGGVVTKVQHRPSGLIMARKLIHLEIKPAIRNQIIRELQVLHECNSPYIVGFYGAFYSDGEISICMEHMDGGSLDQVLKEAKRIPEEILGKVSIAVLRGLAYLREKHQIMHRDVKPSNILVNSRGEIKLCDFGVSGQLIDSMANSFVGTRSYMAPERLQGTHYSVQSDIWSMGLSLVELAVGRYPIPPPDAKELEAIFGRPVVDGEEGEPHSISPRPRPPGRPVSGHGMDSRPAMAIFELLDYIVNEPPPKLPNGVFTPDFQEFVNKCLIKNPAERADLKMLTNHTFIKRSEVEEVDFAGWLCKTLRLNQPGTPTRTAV
Description: as §1, §2

[12] = target: PRKCQ (Homo sapiens (Human), UniProt Q04759); assay: KINOMEscan kinome screen; conditions: percent of negative control binding
Description: as §1, §2

[13] = target: SLK (Homo sapiens (Human), UniProt Q9H2G2); assay: KINOMEscan kinome screen; conditions: percent of negative control binding
Description: as §1, §2

[14] = target: NET (norepinephrine transporter) (Homo sapiens (Human), UniProt P23975); assay: SAFETYscan neurotransmitter transporter activity; format: cell-based
Experimental: (§3) The SAFETYscan™ (DiscoverX) is used for rapid testing of any compound against a panel that includes well-known membrane proteins of importance for drug development such as selected voltage-gated ion channels, G-protein coupled receptors, neurotransmitter transporters and also a selected group of purified cellular enzymes.
(§4) Cell lines engineered to express individual transmembrane receptor proteins such as the muscarinic acetylcholine receptor or the dopamine D1 receptor were grown in culture in their standard growth medium until reaching confluence. […] The experiment also contains controls for comparison including known agonists and antagonists of the targeted membrane proteins.

[15] = target: SERT (serotonin transporter) (Homo sapiens (Human), UniProt P31645); assay: SAFETYscan neurotransmitter transporter activity; format: cell-based
Experimental: as §3, §4

[16] = target: ROCK1 (Homo sapiens (Human), UniProt Q13464); assay: Direct filter-binding radiometric kinase assay, IC50 determination; format: biochemical
Sequence of ROCK1 (Q13464 2-1354 limits assumed): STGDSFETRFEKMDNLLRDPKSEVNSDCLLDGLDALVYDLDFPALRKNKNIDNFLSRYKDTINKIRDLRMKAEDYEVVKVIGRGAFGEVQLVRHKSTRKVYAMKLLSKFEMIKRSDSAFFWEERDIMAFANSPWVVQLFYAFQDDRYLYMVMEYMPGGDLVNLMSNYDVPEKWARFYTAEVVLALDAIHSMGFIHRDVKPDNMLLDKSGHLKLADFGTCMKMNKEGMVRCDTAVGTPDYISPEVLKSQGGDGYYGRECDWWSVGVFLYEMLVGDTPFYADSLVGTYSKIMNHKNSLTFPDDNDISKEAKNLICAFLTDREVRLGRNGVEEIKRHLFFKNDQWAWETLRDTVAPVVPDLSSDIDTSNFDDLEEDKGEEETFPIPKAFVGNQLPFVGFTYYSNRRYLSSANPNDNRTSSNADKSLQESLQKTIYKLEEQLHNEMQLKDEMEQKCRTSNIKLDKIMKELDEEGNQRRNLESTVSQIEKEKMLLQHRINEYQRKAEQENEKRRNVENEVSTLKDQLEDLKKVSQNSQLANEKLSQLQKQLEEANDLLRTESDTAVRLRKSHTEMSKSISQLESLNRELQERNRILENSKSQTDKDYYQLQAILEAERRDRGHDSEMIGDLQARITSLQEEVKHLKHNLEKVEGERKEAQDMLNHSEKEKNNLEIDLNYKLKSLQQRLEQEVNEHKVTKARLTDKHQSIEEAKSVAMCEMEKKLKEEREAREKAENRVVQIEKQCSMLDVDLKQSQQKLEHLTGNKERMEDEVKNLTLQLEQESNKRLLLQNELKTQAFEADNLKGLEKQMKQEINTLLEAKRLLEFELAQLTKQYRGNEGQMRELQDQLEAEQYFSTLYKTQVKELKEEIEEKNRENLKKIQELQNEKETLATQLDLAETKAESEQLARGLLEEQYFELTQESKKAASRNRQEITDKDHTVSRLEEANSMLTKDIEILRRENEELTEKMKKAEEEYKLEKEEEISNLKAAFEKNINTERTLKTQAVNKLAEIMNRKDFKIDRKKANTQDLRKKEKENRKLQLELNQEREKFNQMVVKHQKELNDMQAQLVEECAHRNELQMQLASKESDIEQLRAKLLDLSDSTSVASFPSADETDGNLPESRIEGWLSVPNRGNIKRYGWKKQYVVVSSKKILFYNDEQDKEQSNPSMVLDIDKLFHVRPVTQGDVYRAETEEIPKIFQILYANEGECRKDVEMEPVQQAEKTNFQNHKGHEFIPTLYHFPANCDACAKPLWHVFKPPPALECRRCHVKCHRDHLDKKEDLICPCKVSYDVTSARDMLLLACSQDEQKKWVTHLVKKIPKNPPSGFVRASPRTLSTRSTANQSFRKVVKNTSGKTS
Experimental: Variations in ATP concentrations were tested to better understand potential selectivity in ischemic and diseased tissue where ATP concentrations may be low and impact selectivity.
[…] Both services use a direct filter-binding, radiometric kinase assay with slight variation in protocol.
The top concentration tested was 100 μM for both services. Test compounds were prepared in 100% DMSO at 50× final test concentration and were diluted to 1× in the assay with a final DMSO concentration of 2%.
For one assay, the substrate […] (SEQ ID NO:1) (30 μM) was mixed with reaction buffer (Table 4) and the kinase domain from either the ROCK1 or ROCK2 (as indicated in Table 4). Next, the compounds (in DMSO) were delivered into the mixture via acoustic mixing technology (Echo550, nanoliter range) (SelectScience, Waltham, Mass.), and incubated at RT for 20 min. […] Reactions were then spotted onto P81 ion exchange paper followed by scintillation counting.
The reaction was stopped by the addition of 3% phosphoric acid and 10 μL of the reaction was spotted onto P30 filtermat, washed 3 times in 75 mM phosphoric acid and once in methanol prior to scintillation counting.

[17] = Daily repeat dosing for 2 weeks in normal mice, adverse effects; format: in vivo, mouse
Experimental: In a separate set of experiments, daily repeat dosing experiments were performed to assess adverse effects. […] During the course of the experiment, animals were monitored daily for the appearance of any clinical signs. Hematology, blood chemistry, and histopathology were followed at termination of the experiment.

[18] = system: cynomolgus monkey hepatocytes; assay: Metabolism in cultured hepatocytes; format: in vitro ADME

Compound | maximum reduction of ppMLC2 levels [2] | % Negative Binding, ALK [3] | % Negative Binding, FGFR4 [4] | % Negative Binding, IRAK3 [5] | % Negative Binding, MARK1 [6] | % Negative Binding, MARK2 [7] | % Negative Binding, MARK3 [8] | % Negative Binding, MARK4 [9] | % Negative Binding, MEK1 [10] | % Negative Binding, MEK2 [11] | % Negative Binding, PRKCQ [12] | % Negative Binding, SLK [13] | further results
C[C@@H](N)C1CCN(S(=O)(=O)c2cccc3c(=O)[nH]ccc23)CC1 [1-hydroxy-BA-1049 (R)] | 94% | 81% | 100% | 96% | 69% | 100% | 81% | 92% | 100% | 97% | 66% | 100% | time detectable in brain after administration ([1]; in vivo, iv, 5 mg/kg): < 12 h; pEC50 [2]: 6.35; % Inhibition of Neurotransmitter Transporter Activity, NET ([14]; 10 μM): 11%; % Inhibition of Neurotransmitter Transporter Activity, SERT ([15]; 10 μM): 14%
C[C@@H](N)C1CCN(S(=O)(=O)c2cccc3cnccc23)CC1 [BA-1049 (R)] | 89% | 94% | 100% | 92% | 67% | 100% | 100% | 94% | 99% | 99% | 74% | 70% | pIC50 ([16]; 10 μM ATP, Table 2, read-out: Compound IC50 ROCK1): 5.41; pIC50 ([16]; Compound IC50 ROCK1 10 μM ATP, CRO Eurofins, 10 μM ATP): 5.41; pIC50 ([16]; Compound IC50 ROCK1 10 μM ATP, CRO Reaction Biology, 10 μM ATP): 6.16; pIC50 ([16]; Compound IC50 ROCK1 70 μM ATP, Km ATP 70 μM, Table 3): 4.53; pIC50 ([16]; Compound IC50 ROCK1 70 μM ATP, Km ATP 70 μM, Table 7): 4.53; findings in daily repeat dosing ([17]; 1 mg/kg and 10 mg/kg once daily I.P. for 2 weeks): no abnormal findings; no observed effect level dose ([17]; 2 week repeat dose, I.P.): 10 mg/kg; ½ Life [18]: 15.3 min; time detectable in brain after administration ([1]; 5 mg/kg BA-1049 (R) IV): at least 24 hr; pEC50 ([2]; Homo sapiens, HUVEC): 5.42; inhibition at 10 µM [14]: 12%; inhibition at 10 µM ([15]; read-out: % Inhibition of Neurotransmitter Transporter Activity, SERT): 9%
